From patent publication US20250282785A1, “PYRROLIDINONE DERIVATIVES AS INHIBITORS OF NF KAPPA B INDUCING KINASE” (priority 2022, published 2025)

Legend:
[1] = biological target: Recombinant Human NF-Kappab-Inducing Kinase (NIK/MAP3K14) (Homo sapiens, UniProt Q99558); test: Inhibition of auto-phosphorylation of recombinant human NIK/MAP3K14 (AlphaScreen); assay type: biochemical; details: NIK/MAP3K14 auto-phosphorylation, 5 microM ATP, 1 nM enzyme, 2 h at 25° C.; average of values; read-out: Assay 1 IC50
Sequence of Recombinant Human NF-Kappab-Inducing Kinase (NIK/MAP3K14) (Q99558 whole entry): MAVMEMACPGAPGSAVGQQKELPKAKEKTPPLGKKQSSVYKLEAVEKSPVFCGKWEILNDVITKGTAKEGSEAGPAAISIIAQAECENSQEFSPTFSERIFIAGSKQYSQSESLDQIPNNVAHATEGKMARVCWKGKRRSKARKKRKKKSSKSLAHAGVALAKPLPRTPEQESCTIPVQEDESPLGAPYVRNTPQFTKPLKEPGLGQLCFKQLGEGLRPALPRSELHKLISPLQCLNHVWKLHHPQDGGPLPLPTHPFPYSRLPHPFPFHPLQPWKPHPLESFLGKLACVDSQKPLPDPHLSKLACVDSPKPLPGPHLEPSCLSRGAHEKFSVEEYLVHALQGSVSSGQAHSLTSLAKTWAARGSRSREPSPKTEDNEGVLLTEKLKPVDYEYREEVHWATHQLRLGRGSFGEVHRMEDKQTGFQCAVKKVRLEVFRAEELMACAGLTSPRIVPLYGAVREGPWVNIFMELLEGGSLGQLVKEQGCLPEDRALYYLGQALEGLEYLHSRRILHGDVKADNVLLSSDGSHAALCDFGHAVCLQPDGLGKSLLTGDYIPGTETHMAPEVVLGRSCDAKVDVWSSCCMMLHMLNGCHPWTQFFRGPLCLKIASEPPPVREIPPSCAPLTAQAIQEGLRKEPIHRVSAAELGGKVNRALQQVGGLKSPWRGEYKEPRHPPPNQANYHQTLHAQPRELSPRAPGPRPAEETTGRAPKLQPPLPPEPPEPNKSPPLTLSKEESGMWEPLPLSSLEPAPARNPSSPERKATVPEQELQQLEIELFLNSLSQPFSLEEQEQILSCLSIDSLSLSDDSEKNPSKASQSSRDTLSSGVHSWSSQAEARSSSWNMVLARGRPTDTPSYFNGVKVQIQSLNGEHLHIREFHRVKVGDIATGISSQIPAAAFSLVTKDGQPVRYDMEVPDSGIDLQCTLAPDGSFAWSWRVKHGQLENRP
Method in brief: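 GST-tagged NIK (1 nM) auto-phosphorylation with 5 µM ATP in Tris pH 7.5/MgCl2 buffer, 0.7% DMSO, 2 h at 25 °C. Phospho-IKK Ser176/180 antibody detected by AlphaScreen beads. Signal normalized to full-enzyme and no-ATP controls; IC50 from sigmoidal fit of % inhibition vs log concentration.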

[2] = test system: p-IKKα levels in L363 (NIK translocated multiple myeloma) cells; test: Effect of compounds on p-IKKα levels in L363 cells (AlphaLISA SureFire Ultra); assay type: cell-based; details: Homo sapiens, L-363; L363 cells, BAFF stimulated, MG132, 6 h; average of values; read-out: Assay 2 IC50
Method in brief: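 L363 myeloma cells were BAFF-stimulated (250 ng/ml) overnight in DMEM/0.5% BSA, then exposed 6 h at 37° C to compound (11-point 1:3 series, 0.3% DMSO) with BAFF plus 10 uM MG132. p-IKKα (Ser 176/180) was read by AlphaLISA SureFire Ultra in lysates. IC50 came from sigmoidal fits normalized to stimulated and unstimulated controls.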

Row | SMILES | IC50 [1] | IC50 [2]
1 | CN1CC[C@@](O)(c2cc(-c3cccc(-c4nc5c(c(C(N)=O)n4)CCCC5)c3)no2)C1=O [Example 125, (R)-2-(3-(5-(3-Hydroxy-1-methyl-2-oxopyrrolidin-3-yl)isoxazol-3-yl)phenyl)-5,6,7,8-tetrahydroquinazoline-4-carboxamide] | < 100 nM | > 501 nM
2 | Cc1nc2cc(-c3cccc(-c4cc([C@]5(O)CCN(C)C5=O)on4)c3)ccc2o1 [Example 63, (R)-3-Hydroxy-1-methyl-3-(3-(3-(2-methylbenzo[d]oxazol-5-yl)phenyl)isoxazol-5-yl)pyrrolidin-2-one] | > 501 nM | > 501 nM
3 | COc1cc(-c2cc(-c3cc([C@]4(O)CCN(C)C4=O)on3)ccc2F)nc2c(N)ncnc12 [Example 120, (R)-3-(3-(3-(4-Amino-8-methoxypyrido[3,2-d]pyrimidin-6-yl)-4-fluorophenyl)isoxazol-5-yl)-3-hydroxy-1-methylpyrrolidin-2-one] | < 100 nM | > 501 nM
4 | CN1CC[C@@](O)(c2cc(-c3cccc(-c4cc(C5CC5)nc(C(N)=O)n4)c3)no2)C1=O [Example 85, (R)-4-Cyclopropyl-6-(3-(5-(3-hydroxy-1-methyl-2-oxopyrrolidin-3-yl)isoxazol-3-yl)phenyl)pyrimidine-2-carboxamide] | < 100 nM | > 501 nM
5 | CN1CC[C@@](O)(c2cc(-c3cccc(-c4nc(C(N)=O)n5ccncc45)c3)no2)C1=O [Example 109, (R)-1-(3-(5-(3-Hydroxy-1-methyl-2-oxopyrrolidin-3-yl)isoxazol-3-yl)phenyl)imidazo[1,5-a]pyrazine-3-carboxamide] | < 100 nM | 100 to 500 nM
6 | Cc1cn(C)nc1Nc1sc(-c2cccc(-c3cc([C@]4(O)CCN(C)C4=O)on3)c2)nc1C(N)=O [Example 239, (R)-5-((1,4-Dimethyl-1H-pyrazol-3-yl)amino)-2-(3-(5-(3-hydroxy-1-methyl-2-oxopyrrolidin-3-yl)isoxazol-3-yl)phenyl)thiazole-4-carboxamide] | < 100 nM | < 100 nM
7 | CN1CC[C@@](O)(c2cc(-c3cccc(-c4cc(C5CC5)cc(C(N)=O)n4)c3)no2)C1=O [Example 117, (R)-4-Cyclopropyl-6-(3-(5-(3-hydroxy-1-methyl-2-oxopyrrolidin-3-yl)isoxazol-3-yl)phenyl)picolinamide] | < 100 nM | 100 to 500 nM
8 | [2H]c1nc(N)c2nc(-c3cccc(-c4nc([C@]5(O)CCN(C)C5=O)co4)c3)ccc2n1 (single isomer, unassigned) [Example 41] | > 501 nM | > 501 nM
9 | CN1CC[C@@](O)(c2cc(-c3cccc(-c4cc(-c5ccnn5C)cc(C(N)=O)n4)c3)no2)C1=O [Example 182, (R)-6-(3-(5-(3-Hydroxy-1-methyl-2-oxopyrrolidin-3-yl)isoxazol-3-yl)phenyl)-4-(1-methyl-1H-pyrazol-5-yl)picolinamide] | < 100 nM | > 501 nM
10 | CN1CC[C@@](O)(c2cc(-c3cccc(-n4cc(C(N)=O)c(N)n4)n3)no2)C1=O [Example 195, (R)-3-Amino-1-(6-(5-(3-Hydroxy-1-methyl-2-oxopyrrolidin-3-yl)isoxazol-3-yl)pyridin-2-yl)-1H-pyrazole-4-carboxamide] | < 100 nM | > 501 nM
11 | Cc1cc(-c2cc([C@]3(O)CCN(C)C3=O)on2)cc(-c2cccc(C(N)=O)n2)c1 [Example 152, (R)-6-(3-(5-(3-Hydroxy-1-methyl-2-oxopyrrolidin-3-yl)isoxazol-3-yl)-5-methylphenyl)picolinamide] | < 100 nM | > 501 nM
12 | Cc1cc(-c2cccc(-c3cc([C@@]4(O)CCN(C)C4=O)on3)c2)nc2c(N)ncnc12 [Example 27, (S)-3-(3-(3-(4-Amino-8-methylpyrido[3,2-d]pyrimidin-6-yl)phenyl)isoxazol-5-yl)-3-hydroxy-1-methylpyrrolidin-2-one] | > 501 nM | > 501 nM
13 | CN1CC[C@@](O)(c2cc(-c3cccc(-c4cnc5cnccn45)c3)no2)C1=O [Example 61, (R)-3-Hydroxy-3-(3-(3-(imidazo[1,2-a]pyrazin-3-yl)phenyl)isoxazol-5-yl)-1-methylpyrrolidin-2-one] | 100 to 500 nM | > 501 nM
14 | CN1CC[C@](O)(c2cn(-c3cccc(-c4cccc(C(N)=O)n4)c3)nn2)C1=O [Example 42, (S)-6-(3-(4-(3-Hydroxy-1-methyl-2-oxopyrrolidin-3-yl)-1H-1,2,3-triazol-1-yl)phenyl)picolinamide] | > 501 nM | > 501 nM
15 | Cc1nc(N)c2nc(-c3ccc(-c4cc([C@]5(O)CCN(C)C5=O)on4)o3)ccc2n1 [Example 159, (R)-3-(3-(5-(4-Amino-2-methylpyrido[3,2-d]pyrimidin-6-yl)furan-2-yl)isoxazol-5-yl)-3-hydroxy-1-methylpyrrolidin-2-one] | < 100 nM | 100 to 500 nM
16 | COc1cc(-c2cccc(-c3cc([C@]4(O)CCN(C)C4=O)on3)c2)nc2c(N)ncnc12 [Example 118, (R)-3-(3-(3-(4-Amino-8-methoxypyrido[3,2-d]pyrimidin-6-yl)phenyl)isoxazol-5-yl)-3-hydroxy-1-methylpyrrolidin-2-one] | < 100 nM | 100 to 500 nM
17 | [2H]c1nc(N)c2nc(-c3cccc(-c4cc([C@@]5(O)CCN(C)C5=O)n[nH]4)c3)ccc2n1 (single isomer, unassigned) [Example 37] | > 501 nM | > 501 nM
18 | COc1cc(-c2cccc(-c3cc([C@]4(O)CCN(C)C4=O)on3)c2)nc2[nH]ncc12 [Example 224, (R)-3-Hydroxy-3-(3-(3-(4-methoxy-1H-pyrazolo[3,4-b]pyridin-6-yl)phenyl)isoxazol-5-yl)-1-methylpyrrolidin-2-one] | 100 to 500 nM | > 501 nM
19 | COc1cc(C(N)=O)nc(-c2cc(-c3cc([C@]4(O)CCN(C)C4=O)on3)ccn2)c1 [Example 21, (R)-4′-(5-(3-Hydroxy-1-methyl-2-oxopyrrolidin-3-yl)isoxazol-3-yl)-4-methoxy-[2,2′-bipyridine]-6-carboxamide] | < 100 nM | > 501 nM
20 | CN1CC[C@@](O)(c2cc(-c3cccc(-c4ncc(Nc5cn[nH]c5)c(C(N)=O)n4)c3)no2)C1=O [Example 141, (R)-5-((1H-Pyrazol-4-yl)amino)-2-(3-(5-(3-hydroxy-1-methyl-2-oxopyrrolidin-3-yl)isoxazol-3-yl)phenyl)pyrimidine-4-carboxamide] | < 100 nM | < 100 nM
21 | CN1CC[C@@](O)(c2cn(-c3cccc(-c4cccc(C(N)=O)n4)c3)nn2)C1=O [Example 14, (R)-6-(3-(4-(3-Hydroxy-1-methyl-2-oxopyrrolidin-3-yl)-1H-1,2,3-triazol-1-yl)phenyl)picolinamide] | < 100 nM | > 501 nM
22 | CN1CC[C@@](O)(c2cc(-c3cccc(-c4nc(C(N)=O)c(CN)s4)c3)no2)C1=O [Example 237, (R)-5-(Aminomethyl)-2-(3-(5-(3-hydroxy-1-methyl-2-oxopyrrolidin-3-yl)isoxazol-3-yl)phenyl)thiazole-4-carboxamide] | < 100 nM | > 501 nM
23 | CN1CC[C@@](O)(c2cc(-c3cccc(-c4nc(C(N)=O)c5n4CCN(CCC(F)(F)F)C5)c3)no2)C1=O [Example 232, (R)-3-(3-(5-(3-Hydroxy-1-methyl-2-oxopyrrolidin-3-yl)isoxazol-3-yl)phenyl)-7-(3,3,3-trifluoropropyl)-5,6,7,8-tetrahydroimidazo[1,5-a]pyrazine-1-carboxamide] | > 501 nM | > 501 nM
24 | [2H]c1nc(N)c2nc(-c3cccc(-c4cc([C@]5(O)CCN(C)C5=O)nn4C)c3)ccc2n1 (single isomer, unassigned) [Example 43] | 100 to 500 nM | > 501 nM
25 | CN1CC[C@@](O)(c2cc(-c3cccc(-c4ccc5c(cnn5C)n4)c3)no2)C1=O [Example 229, (R)-3-Hydroxy-1-methyl-3-(3-(3-(1-methyl-1H-pyrazolo[4,3-b]pyridin-5-yl)phenyl)isoxazol-5-yl)pyrrolidin-2-one] | > 501 nM | > 501 nM
26 | Cc1ncn2cc(-c3cccc(-c4cc([C@]5(O)CCN(C)C5=O)on4)c3)ccc12 [Example 57, (R)-3-Hydroxy-1-methyl-3-(3-(3-(1-methylimidazo[1,5-a]pyridin-6-yl)phenyl)isoxazol-5-yl)pyrrolidin-2-one] | > 501 nM | > 501 nM
27 | [2H]c1nc(N)c2nc(-c3cccc(-c4cc([C@]5(O)CCN(C)C5=O)no4)c3)ccc2n1 [Example 16, (R)-3-(5-(3-(4-Aminopyrido[3,2-d]pyrimidin-6-yl-2-d)phenyl)isoxazol-3-yl)-3-hydroxy-1-methylpyrrolidin-2-one] | < 100 nM | 100 to 500 nM
28 | CN1CC[C@@](O)(c2cc(-c3cccc(-c4cc(N5CC(F)(F)C5)cc(C(N)=O)n4)c3)no2)C1=O [Example 100, (R)-4-(3,3-Difluoroazetidin-1-yl)-6-(3-(5-(3-hydroxy-1-methyl-2-oxopyrrolidin-3-yl)isoxazol-3-yl)phenyl)picolinamide] | < 100 nM | > 501 nM
29 | CN1CC[C@@](O)(c2cc(-c3cccc(-c4cc(C(N)=O)nc5[nH]ccc45)c3)no2)C1=O [Example 94, (R)-4-(3-(5-(3-Hydroxy-1-methyl-2-oxopyrrolidin-3-yl)isoxazol-3-yl)phenyl)-1H-pyrrolo[2,3-b]pyridine-6-carboxamide] | > 501 nM | > 501 nM
